Measurements from patent US7022843B1, “β,β′-dihydroxy meso-substituted chlorins, isobacteriochlorins, and bacteriochlorins” (priority 1999, dated 2006).
“And” between values parts separate entries of the source, which are not always exact repeats. Equal entries are not always repeated. Where two headings read alike, the source gives them in different places.

Columns and labels:
[1] = system: L1210 cells; assay: Phototoxicity in L1210 cells, MTT viability assay; format: cell-based; conditions: for LD50: phototoxicity, L1210 cells
Experimental: The above described compounds were tested in vitro for phototoxicity and dark toxicity in L1210 cells as described in the Example section below. Twenty four compounds which were tested for cytotoxicity are listed in Table 3 below along with BPD-MA.
(§1) Phototoxicity was determined with L11210 cells in the presence of the compound as follows: the L1210 cells were exposed to varying concentrations of the compounds in 96-well microtiter plates for one hour at 37° C. and 5% CO2. No fetal calf serum (FCS) was added at this time. The plate was then illuminated for one hour after which a 10% aqueous FCS solution was added to the wells. The plates were then returned to the CO2 incubator overnight. After incubation, the cells were assayed for viability using the MTT assay (Mossman, T. J. Immunol. Meth. 1983, 65, 55).

[2] = system: L1210 cells; assay: Dark cytotoxicity in L1210 cells (plates wrapped in aluminum foil); format: cell-based
Experimental: The above compounds were also tested for dark toxicity. Dark toxicity refers to the toxicity of the drug to cells in the absence of light. This toxicity is, therefore, not due to singlet oxygen mediated cellular damage.
as §1
Dark cytotoxicity was determined while the plates were wrapped in aluminum foil while under the light source.

[3] = 1 h exposure without FCS, 1 h illumination, MTT

Compound	LD50 [1, 3]	LD50 ([1]; Table 4) [ng/mL]	LD50dark [2]	LD20dark ([2]; L1210 cells, absence of light) [ng/mL]	LD50dark ([2]; L1210 cells, absence of light) [ng/mL]	times more potent than BPD-MA ([1]; fold potency based on LD50)	times more potent than HpD ([1]; fold potency based on LD50)	times more potent than Photofrin™ ([1]; fold potency based on LD50)	LD50 ([1]; 1 h exposure without FCS, 1 h illumination, MTT, listed as diphenyl-2,3-dihydroxychlorin) [ng/mL]
OC1c2nc(c(-c3ccccc3)c3ccc([nH]3)c(-c3ccccc3)c3nc(c(-c4ccccc4)c4ccc([nH]4)c2-c2ccccc2)C=C3)C1O (stereo not shown) [Compound 3, H2TPC(OH)2]	2.78 M and 1800 ng/mL	1800	19000 ng/mL	7000	–	–	–	–	–
O=[N+]([O-])c1cccc(-c2c3nc(c(-c4cccc([N+](=O)[O-])c4)c4ccc([nH]4)c(-c4cccc([N+](=O)[O-])c4)c4nc(c(-c5cccc([N+](=O)[O-])c5)c5ccc2[nH]5)C(O)C4O)C=C3)c1 (stereo not shown) [Compound 4, T(m-NO2)PC(OH)2]	5.43 M and 4500 ng/mL	4500	15000 ng/mL	4500	–	–	–	–	–
OC1c2nc(c(-c3ccc(Br)cc3)c3ccc([nH]3)c(-c3ccc(Br)cc3)c3nc(c(-c4ccc(Br)cc4)c4ccc([nH]4)c2-c2ccc(Br)cc2)C=C3)C1O (stereo not shown) [Compound 5, T(p-Br)PC(OH)2]	6.22 M and 6000 ng/mL	6000	8000 ng/mL	1900	–	–	–	–	–
OC1c2nc(c(-c3cccc(Br)c3)c3ccc([nH]3)c(-c3cccc(Br)c3)c3nc(c(-c4cccc(Br)c4)c4ccc([nH]4)c2-c2cccc(Br)c2)C=C3)C1O (stereo not shown) [Compound 6, T(m-Br)PC(OH)2]	4.15 M and 4000 ng/mL	4000	4000 ng/mL	1500	–	–	–	–	–
OC1c2nc(c(-c3cccc(F)c3)c3ccc([nH]3)c(-c3cccc(F)c3)c3nc(c(-c4cccc(F)c4)c4ccc([nH]4)c2-c2cccc(F)c2)C=C3)C1O (stereo not shown) [Compound 7, T(m-F)PC(OH)2]	6.87 M and 5000 ng/mL	5000	6000 ng/mL	1500	–	–	–	–	–
OC1c2nc(c(-c3ccccc3F)c3ccc([nH]3)c(-c3ccccc3F)c3nc(c(-c4ccccc4F)c4ccc([nH]4)c2-c2ccccc2F)C=C3)C1O (stereo not shown) [Compound 8, T(o-F)PC(OH)2]	4.17 M and 3000 ng/mL	3000	15000 ng/mL	5000	–	–	–	–	–
OC1c2nc(c(-c3c(F)c(F)c(F)c(F)c3F)c3ccc([nH]3)c(-c3c(F)c(F)c(F)c(F)c3F)c3nc(c(-c4c(F)c(F)c(F)c(F)c4F)c4ccc([nH]4)c2-c2c(F)c(F)c(F)c(F)c2F)C=C3)C1O (stereo not shown) [Compound 9, TF5PC(OH)2]	1.79 M and 1800 ng/mL	100	12000 ng/mL	5000	–	–	–	–	–
Oc1ccc(-c2c3nc(c(-c4ccc(O)cc4)c4ccc([nH]4)c(-c4ccc(O)cc4)c4nc(c(-c5ccc(O)cc5)c5ccc2[nH]5)C(O)C4O)C=C3)cc1 (stereo not shown) [Compound 10, T(p-OH)PC(OH)2]	4.92 M and 3500 ng/mL	3500	15000 ng/mL	5000	–	–	–	–	–
Oc1cccc(-c2c3nc(c(-c4cccc(O)c4)c4ccc([nH]4)c(-c4cccc(O)c4)c4nc(c(-c5cccc(O)c5)c5ccc2[nH]5)C(O)C4O)C=C3)c1 (stereo not shown) [Compound 11, T(m-OH)PC(OH)2]	0.0211 M and 15 ng/mL	15	12500 ng/mL	10000	–	–	–	–	–
COC(=O)c1ccc(-c2c3nc(c(-c4ccc(C(=O)OC)cc4)c4ccc([nH]4)c(-c4ccc(C(=O)OC)cc4)c4nc(c(-c5ccc(C(=O)OC)cc5)c5ccc2[nH]5)C(O)C4O)C=C3)cc1 (stereo not shown) [Compound 12, T(p-CO2Me)PC(OH)2]	0.136 M and 120 ng/mL	120	–	3000	15000	–	–	–	–
COc1cccc(-c2c3nc(c(-c4cccc(OC)c4)c4ccc([nH]4)c(-c4cccc(OC)c4)c4nc(c(-c5cccc(OC)c5)c5ccc2[nH]5)C(O)C4O)C=C3)c1 (stereo not shown) [Compound 15, T(m-OCH3)PC(OH)2]	1.3 M and 1000 ng/mL	–	–	–	–	–	–	–	–
COc1cc(OC)cc(-c2c3nc(c(-c4cc(OC)cc(OC)c4)c4ccc([nH]4)c(-c4cc(OC)cc(OC)c4)c4nc(c(-c5cc(OC)cc(OC)c5)c5ccc2[nH]5)C(O)C4O)C=C3)c1 (stereo not shown) [Compound 16, T(m,m′-OCH3)PC(OH)2]	2.25 M and 2000 ng/mL	2000	12000 ng/mL	5000	–	–	–	–	–
COc1cc(-c2c3nc(c(-c4ccc(O)c(OC)c4)c4ccc([nH]4)c(-c4ccc(O)c(OC)c4)c4nc(c(-c5ccc(O)c(OC)c5)c5ccc2[nH]5)C(O)C4O)C=C3)ccc1O (stereo not shown) [Compound 17, T(m-OCH3,p-OH)PC(OH)2]	0.0361 M and 30 ng/mL	30	4500 ng/mL	500	–	–	–	–	–
COc1cc(-c2c3nc(c(-c4cc(OC)c(OC)c(OC)c4)c4ccc([nH]4)c(-c4cc(OC)c(OC)c(OC)c4)c4nc(c(-c5cc(OC)c(OC)c(OC)c5)c5ccc2[nH]5)C(O)C4O)C=C3)cc(OC)c1OC (stereo not shown) [Compound 18, T(m,p,m′-OCH3)PC(OH)2]	0.0198 M and 20 ng/mL	20	20000 ng/mL	7500	–	–	–	–	–
Cc1ccc(-c2c3nc(c(-c4ccc(C)cc4)c4ccc([nH]4)c(-c4ccc(C)cc4)c4nc(c(-c5ccc(C)cc5)c5ccc2[nH]5)C(O)C4O)C=C3)cc1 (stereo not shown) [Compound 21, T(p-CH3)PC(OH)2]	9.94 M and 7000 ng/mL	7000	15000 ng/mL	5000	–	–	–	–	–
Cc1cc(C)c(-c2c3nc(c(-c4c(C)cc(C)cc4C)c4ccc([nH]4)c(-c4c(C)cc(C)cc4C)c4nc(c(-c5c(C)cc(C)cc5C)c5ccc2[nH]5)C(O)C4O)C=C3)c(C)c1 (stereo not shown) [Compound 22, T(o,p,o′-CH3)PC(OH)2]	12.3 M and 10000 ng/mL	10000	18000 ng/mL	7500	–	–	–	–	–
O=S(=O)(O)c1ccc(-c2c3nc(c(-c4ccc(S(=O)(=O)O)cc4)c4ccc([nH]4)c(-c4ccc(S(=O)(=O)O)cc4)c4nc(c(-c5ccc(S(=O)(=O)O)cc5)c5ccc2[nH]5)C(O)C4O)C=C3)cc1 (stereo not shown) [Compound 23, T(p-SO3H)PC(OH)2]	1.11 M and 1000 ng/mL	1000	>>20000 ng/mL	>20000	–	–	–	–	–
CC(C)(C)c1ccc(-c2c3nc(c(-c4ccc(C(C)(C)C)cc4)c4ccc([nH]4)c(-c4ccc(C(C)(C)C)cc4)c4nc(c(-c5ccc(C(C)(C)C)cc5)c5ccc2[nH]5)C(O)C4O)C=C3)cc1 (stereo not shown) [Compound 24, T(p-t-Bu)PC(OH)2]	6.88 M and 6000 ng/mL	6000	7000 ng/mL	2000	–	–	–	–	–
OC1c2cc3ccc([nH]3)c(-c3ccccc3)c3nc(cc4ccc([nH]4)c(-c4ccccc4)c(n2)C1O)C=C3 (stereo not shown) [Compound 25, diphenyl-2,3-dihydroxychlorin]	0.0024 M and 1.2 ng/mL	1.2	5000 ng/mL	1500	–	10	700	450	1.2
Oc1ccc(-c2c3nc(c(-c4ccccc4)c4ccc([nH]4)c(-c4ccccc4)c4nc(c(-c5ccccc5)c5ccc2[nH]5)C=C4)C(O)C3O)cc1 (stereo not drawn) [Compound 27, meso-5-(p-hydroxyphenyl)-10,15,20-triphenyl-2,3-dihydroxychlorin]	0.0211 M and 14 ng/mL	14	9000 ng/mL	2000	–	–	–	–	–
O=[N+]([O-])c1ccc(-c2c3nc(c(-c4ccccc4)c4ccc([nH]4)c(-c4ccccc4)c4nc(c(-c5ccccc5)c5ccc2[nH]5)C=C4)C(O)C3O)cc1 (stereo not drawn) [Compound 28, meso-5-(p-nitrophenyl)-10,15,20-triphenyl-2,3-dihydroxychlorin]	2.42 M and 2000 ng/mL	2000	18000 ng/mL	2000	–	–	–	–	–
OC1c2nc(c(-c3ccccc3)c3ccc([nH]3)c(-c3ccccc3)c3nc(c(-c4ccccc4)c4ccc([nH]4)c2-c2ccccc2)C(O)C3O)C1O (stereo not shown) [Compound 29, H2TPB(OH)4]	1.03 M and 700 ng/mL	700	7500 ng/mL	2500	–	–	–	–	–
COc1cc(OC)c(-c2c3nc(c(-c4c(OC)cc(OC)cc4OC)c4ccc([nH]4)c(-c4c(OC)cc(OC)cc4OC)c4nc(c(-c5c(OC)cc(OC)cc5OC)c5ccc2[nH]5)C(O)C4O)C(O)C3O)c(OC)c1 (stereo not shown) [Compound 30, T(o,p,o′-OCH3)PB(OH)4]	18 ng/mL	18	18000 ng/mL	1200	–	–	–	–	–
T(p-OCH3)PC(OH)2 [Compound 14]	7.81 M and 6000 ng/mL	6000	>20000 ng/mL	9000	–	–	–	–	–
T(p-OCOEt)PC(OH)2 [Compound 13]	–	1000	20000 ng/mL	8000	–	–	–	–	–
